Assay results taken from US6380202B1, “Fungicidal fluoro-substituted 7-heterocyclyl-triazolopyrimidines” (BASF Aktiengesellschaft, priority 1998, dated 2002).
Converted amounts (≈) assume the structure as drawn. “And” between values parts separate entries of the source, which are not always exact repeats. Equal values may be shown once. Read-outs that look alike come from different tables or passages of the source.

What was measured:
Alternaria solani = format: cell-based
Botrytis cinerea = format: cell-based
Leptosphaeria nodorum [1] = experiment: MIC serial dilution test, Leptosphaeria nodorum (LEPTNO); format: cell-based
Phytophthora infestans = format: cell-based; conditions: total inhibition of mycelial growth; V8 nutrient solution; 6-12 days incubation, 18-25° C.; visual inspection
[2] = test system: Magnaporthe grisea f. sp. oryzae; format: cell-based; conditions: total inhibition of mycelial growth; V8 nutrient solution; 6-12 days incubation, 18-25° C.; visual inspection
Pyrenophora teres = format: cell-based
Rhizoctonia solani = format: cell-based
[3] = test system: Erysiphe graminis DC. f.sp. tritici E. Marchal; conditions: in vivo
Puccinia recondita = conditions: in vivo
Leptosphaeria nodorum [4] = experiment: Greenhouse test, Wheat Septoria nodorum (WSN); conditions: Foliar application, 2 day residual (inoculation 2 days after application)
[5] = […], V8 nutrient solution, 6-12 days incubation, 18-25° C., visual inspection
[6] = total inhibition of mycelial growth, V8 nutrient solution, 6-12 days incubation, 18-25° C., visual inspection

| SMILES | MIC (Minimum Inhibitory Concentration) ALTESO (Alternaria solani; [5]) | MIC (Minimum Inhibitory Concentration) BOTRCI (Botrytis cinerea; [5]) | MIC (Minimum Inhibitory Concentration) LEPTNO (Leptosphaeria nodorum [1]; [6]) | MIC (Minimum Inhibitory Concentration) PHYTIN (Phytophthora infestans) | MIC (Minimum Inhibitory Concentration) PYRIOR [2] | MIC (Minimum Inhibitory Concentration) PYRNTE (Pyrenophora teres; [5]) | MIC (Minimum Inhibitory Concentration) RHIZSO (Rhizoctonia solani; [5]) | Disease control (% efficacy) WPM 2 da R [3] | Disease control (% efficacy) WLR 2 da C (Puccinia recondita) | Disease control (% efficacy) WSN 2 da R (Leptosphaeria nodorum [4]; 25 ppm) | Disease control (% efficacy) WSN 2 da R (Leptosphaeria nodorum [4]; 100 ppm) | Disease control (% efficacy) WLR 2 da R (Puccinia recondita) | MIC (Minimum Inhibitory Concentration) ALTESO (Alternaria solani) | MIC (Minimum Inhibitory Concentration) PYRNTE (Pyrenophora teres) | MIC (Minimum Inhibitory Concentration) BOTRCI (Botrytis cinerea) | MIC (Minimum Inhibitory Concentration) LEPTNO (Leptosphaeria nodorum [1]) | MIC (Minimum Inhibitory Concentration) RHIZSO (Rhizoctonia solani) |
| --- | --- | --- | --- | --- | --- | --- | --- | --- | --- | --- | --- | --- | --- | --- | --- | --- | --- |
| Fc1cccc(Cl)c1-c1c(Cl)nc2ncnn2c1N1CCC(F)(F)CC1 [Example 5, 5-chloro-6-(2-chloro-6-fluorophenyl)-7-N-(4,4-difluoropiperid-1-yl)-[1,2,4]triazolo[1,5-a]pyrimidine] | <0.05 mg/mL | 50 mg/mL (≈ 124 mM) | 12.5 mg/mL (≈ 31.1 mM) | >100 mg/mL | 0.2 mg/mL (≈ 0.497 mM) | 3.13 mg/mL (≈ 7.78 mM) | >100 mg/mL | 74% and 94% and 84% | 10% and 0% | 36% | 98% | – | – | – | – | – | – |
| FCC1CCN(c2c(-c3c(F)cccc3Cl)c(Cl)nc3ncnn23)CC1 [Example 2, 5-chloro-7-(4-fluoromethylpiperid-1-yl)-6-(2-chloro-6-fluorophenyl)-1,2,4-triazolo[1,5a]pyrimidine] | 0.39 mg/mL (≈ 0.979 mM) | 3.13 mg/mL (≈ 7.86 mM) | >100 mg/mL | >100 mg/mL | 0.78 mg/mL (≈ 1.96 mM) | 3.13 mg/mL (≈ 7.86 mM) | >100 mg/mL | – | – | 17% | 83% | 100% | – | – | – | – | – |
| Fc1cccc(Cl)c1-c1c(Cl)nc2ncnn2c1N1CCCC(F)C1 (stereo not drawn) [Example 3, 5-chloro-6-(2-chloro-6-fluorophenyl)-7-N-(3-fluoropiperid-1-yl)-[1,2,4]triazolo[1,5-a]pyrimidine] | – | 12.5 mg/mL (≈ 32.5 mM) | 50 mg/mL (≈ 130 mM) | >100 mg/mL | 6.25 mg/mL (≈ 16.3 mM) | – | 50 mg/mL (≈ 130 mM) | – | – | 0% | 92% | – | 6.25 mg/mL (≈ 16.3 mM) | 6.25 mg/mL (≈ 16.3 mM) | – | – | – |
| Fc1cc(F)c(-c2c(Cl)nc3ncnn3c2N2CCC(F)CC2)c(F)c1 [Example 1, 5-chloro-7-(4-fluoropiperid-1-yl)-6-(2,4,6-trifluorophenyl)-1,2,4-triazolo[1,5a]pyrimidine] | 0.2 mg/mL (≈ 0.518 mM) | 3.13 mg/mL (≈ 8.11 mM) | 12.5 mg/mL (≈ 32.4 mM) | 50 mg/mL (≈ 130 mM) | 1.56 mg/mL (≈ 4.04 mM) | – | 12.5 mg/mL (≈ 32.4 mM) | 88% and 100% | – | 54% | 100% | – | – | 1.56 mg/mL (≈ 4.04 mM) | – | – | – |
| FCC1CCN(c2c(-c3c(F)cc(F)cc3F)c(Cl)nc3ncnn23)CC1 [Example 6, 5-chloro-7-N-(4-fluoromethylpiperid-1-yl)-6-(2,4,6-trifluorophenyl)-[1,2,4]triazolo[1,5-a]pyrimidine] | – | – | – | >100 mg/mL | 0.78 mg/mL (≈ 1.95 mM) | – | – | – | 100% and 98% | 63% | 99% | 100% | 0.39 mg/mL (≈ 0.976 mM) | 3.13 mg/mL (≈ 7.83 mM) | 3.13 mg/mL (≈ 7.83 mM) | >100 mg/mL | >100 mg/mL |
| Fc1c(F)c(F)c(-c2c(Cl)nc3ncnn3c2N2CCCC(F)C2)c(F)c1F (stereo not drawn) [Example 4, 5-chloro-7-N-(3-fluoropiperid-1-yl)-6-(pentafluorophenyl)-[1,2,4]triazolo[1,5-a]pyrimidine] | 3.13 mg/mL (≈ 7.42 mM) | 12.5 mg/mL (≈ 29.6 mM) | 50 mg/mL (≈ 119 mM) | 100 mg/mL (≈ 237 mM) | 1.56 mg/mL (≈ 3.7 mM) | 12.5 mg/mL (≈ 29.6 mM) | 6.25 mg/mL (≈ 14.8 mM) | – | – | 0% | 0% | – | – | – | – | – | – |
